Measurements reported in the NIST ThermoML archive (doi:10.1021/je1004643).
Numbers after ± are expanded uncertainties.

What was measured:
[1] = Liquid; for mass density: 298.15 K, 101.33 kPa; for Normal boiling temperature: Ebulliometric method (Recirculating still)
[2] = refractive index (Na D-line) (dimensionless); details: 298.15 K; 101.33 kPa; Liquid; Standard Abbe refractometry

CCC(C)=O [butanone]
mass density [1]: 799.62 ± 0.46 kg/m3
Normal boiling temperature [1]: 79.53 ± 0.3 °C
refractive index [2]: 1.3761 ± 0.0005

CCC(C)O (stereo unspecified) [butan-2-ol]
mass density [1]: 802.35 ± 0.79 kg/m3
Normal boiling temperature [1]: 99.41 ± 0.3 °C
refractive index [2]: 1.3951 ± 0.0005
